T1: human SHBG (hSHBG) (Homo sapiens, UniProt P04278)
T1 construct: homodimer ~94 kDa, glycosylated
T1 sequence (P04278 30-402): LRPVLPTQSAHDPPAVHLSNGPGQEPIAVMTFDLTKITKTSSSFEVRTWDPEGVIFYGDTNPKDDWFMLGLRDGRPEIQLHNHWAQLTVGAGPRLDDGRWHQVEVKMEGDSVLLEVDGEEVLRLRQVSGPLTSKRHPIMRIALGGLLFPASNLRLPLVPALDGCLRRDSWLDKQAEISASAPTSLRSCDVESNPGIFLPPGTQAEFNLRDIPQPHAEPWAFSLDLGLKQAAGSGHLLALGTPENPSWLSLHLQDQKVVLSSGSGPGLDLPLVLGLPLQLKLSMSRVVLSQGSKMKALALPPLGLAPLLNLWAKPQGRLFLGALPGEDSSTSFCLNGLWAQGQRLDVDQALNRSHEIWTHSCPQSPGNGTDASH


How the values were obtained:
[1] = biological target: T1, human SHBG (hSHBG); test: competition with [3H]DHT, dextran-coated charcoal separation; assay type: binding; settings: ~6 nM [3H]DHT; data not shown
[2] = biological target: T2, ursine SHBG (uSHBG) (Ursus arctos, UniProt Z9D432XYQ2); test: as above; assay type: binding; settings: ~6 nM [3H]DHT; data not shown
T2 construct: homodimer ~93 kDa, glycosylated; 402 aa precursor
T2 sequence (Z9D432XYQ2 27-402 limits assumed): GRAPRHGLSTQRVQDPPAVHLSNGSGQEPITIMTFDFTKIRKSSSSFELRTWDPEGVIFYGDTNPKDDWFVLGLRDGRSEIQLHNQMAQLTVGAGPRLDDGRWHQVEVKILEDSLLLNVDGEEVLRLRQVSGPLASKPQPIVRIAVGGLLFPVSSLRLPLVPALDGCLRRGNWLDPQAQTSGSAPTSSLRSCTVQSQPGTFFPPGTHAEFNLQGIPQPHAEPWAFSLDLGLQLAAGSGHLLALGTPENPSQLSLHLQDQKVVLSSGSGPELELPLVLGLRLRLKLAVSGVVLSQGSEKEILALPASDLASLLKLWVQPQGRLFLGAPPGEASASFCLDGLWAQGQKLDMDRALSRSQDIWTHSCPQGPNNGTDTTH

[3] = biological target: recombinant full-length ursine sex hormone-binding globulin with a C-terminal FLAG tag (Ursus arctos (brown bear)); test: SEC-MALS; WYATT 30S5 SEC column, 20 mM Tris-HCl, 250 mM NaCl (for the ursine measurements), 1 mM CaCl2, 1 uM DHT, pH 8.0; about 10 ug SHBG injected; dimer
[4] = biological target: the molecule itself; test: SEC-MALS; WYATT 30S5 SEC column, 20 mM Tris-HCl, 150 mM NaCl, 1 mM CaCl2, 1 uM DHT, pH 8.0; about 10 ug SHBG injected; dimer
[5] = biological target: the molecule itself; test: SEC-MALS; native human serum SHBG; WYATT 30S5 SEC column, 20 mM Tris-HCl, 150 mM NaCl, 1 mM CaCl2, 1 uM DHT, pH 8.0; dimer

Row | Molecule | RBA (DHT = 100%) [1] | RBA (DHT = 100%) [2] | also measured
1 | C[C@]12C[C@H](O)[C@H]3[C@@H](CCC4=CC(=O)CC[C@@]43C)[C@@H]1CC[C@@H]2C(=O)CO [corticosterone] | < 1% | < 1% | –
2 | recombinant full-length ursine sex hormone-binding globulin with a C-terminal FLAG tag (natural protein) | – | – | stoichiometry N [3]: 2
3 | C[C@]12CC[C@H]3[C@@H](CCC4=CC(=O)CC[C@@]43C)[C@@H]1CC[C@@H]2C(=O)CO [deoxycorticosterone] | < 1% | – | –
4 | C[C@]12CCC(=O)C=C1CC[C@@H]1[C@@H]2CC[C@@]2(C)[C@H]1CC[C@]2(O)C(=O)CO [11‐deoxycortisol] | < 1% | < 1% | –
5 | CC(=O)[C@H]1CC[C@H]2[C@@H]3CCC4=CC(=O)CC[C@]4(C)[C@H]3CC[C@]12C [progesterone] | < 1% | < 1% | –
6 | C[C@]12CC[C@H](O)CC1=CC[C@@H]1[C@@H]2CC[C@]2(C)C(=O)CC[C@@H]12 [dehydroepiandrosterone] | < 1% | < 1% | –
7 | C[C@]12CCC(=O)C=C1CC[C@@H]1[C@@H]2CC[C@]2(C)C(=O)CC[C@@H]12 [androstenedione] | < 1% | < 1% | –
8 | recombinant full-length human sex hormone-binding globulin with a C-terminal FLAG tag (natural protein, UniProt P04278-1 30-402, looked up, glycosylated (insect cell glycans); disulfide Cys164-Cys188 verified by MALDI-ToF MS, precursor of 402 residues expressed with its native signal peptide (29 residues, [residues removed]), which is cleaved on secretion; a second N-terminus one residue shorter (RPVLPTQ...) was also seen by MS. numbers count on: the mature protein; cDNA amplified from human liver total RNA; also called human SHBG; hSHBG; not shown: FLAG, C-terminal, kept) LRPVLPTQSAHDPPAVHLSNGPGQEPIAVMTFDLTKITKTSSSFEVRTWDPEGVIFYGDTNPKDDWFMLGLRDGRPEIQLHNHWAQLTVGAGPRLDDGRWHQVEVKMEGDSVLLEVDGEEVLRLRQVSGPLTSKRHPIMRIALGGLLFPASNLRLPLVPALDGCLRRDSWLDKQAEISASAPTSLRSCDVESNPGIFLPPGTQAEFNLRDIPQPHAEPWAFSLDLGLKQAAGSGHLLALGTPENPSWLSLHLQDQKVVLSSGSGPGLDLPLVLGLPLQLKLSMSRVVLSQGSKMKALALPPLGLAPLLNLWAKPQGRLFLGALPGEDSSTSFCLNGLWAQGQRLDVDQALNRSHEIWTHSCPQSPGNGTDASH | – | – | stoichiometry N [4]: 2
9 | native human serum SHBG (natural protein, UniProt P04278-1 30-402, looked up, also called native serum SHBG; SHBG present in human serum) LRPVLPTQSAHDPPAVHLSNGPGQEPIAVMTFDLTKITKTSSSFEVRTWDPEGVIFYGDTNPKDDWFMLGLRDGRPEIQLHNHWAQLTVGAGPRLDDGRWHQVEVKMEGDSVLLEVDGEEVLRLRQVSGPLTSKRHPIMRIALGGLLFPASNLRLPLVPALDGCLRRDSWLDKQAEISASAPTSLRSCDVESNPGIFLPPGTQAEFNLRDIPQPHAEPWAFSLDLGLKQAAGSGHLLALGTPENPSWLSLHLQDQKVVLSSGSGPGLDLPLVLGLPLQLKLSMSRVVLSQGSKMKALALPPLGLAPLLNLWAKPQGRLFLGALPGEDSSTSFCLNGLWAQGQRLDVDQALNRSHEIWTHSCPQSPGNGTDASH | – | – | stoichiometry N [5]: 2
